Results published in patent US20220008542A1, “ANTI-PROTOZOAL COMPOUNDS AND USES THEREOF” (AUBURN UNIVERSITY, priority 2017, published 2022).
Like-named read-outs stand apart in the source and are kept apart here.

Columns and labels:
[1] = test system: T. foetus trophozoites; test: Example 1: T. foetus trophozoites in culture tubes, surviving organisms counted by hemocytometer, re-culture at 12 hours; type: cell-based, Tritrichomonas foetus; details: for inhibition of parasite growth: PO 75 mg mL^-1, OX 50 mg mL^-1, compound alone; for reduction in motile organisms: after 2 hours of culture, compound alone; for motile organisms after re-culture: re-culture at 12 hours, examination at 24 hours
Method: (§1) Experiments were performed in vitro using pure cultures of T. foetus trophozoites with the addition of i) an antiprotozoal compound alone or ii) a veterinary formulation comprising an antiprotozoal compound and a polymer. Samples were evaluated at predetermined time points using Neubauer hemocytometers (C-Chip® NanoEnTek Inc., Pleasanton, Calif.) to determine the number of viable organisms and the induction of the pseudocyst form. Cultures were tested for reversibility to the motile trophozoite form or replication of organisms.
(§2) The CDTf3 cloned strain of T. foetus was utilized for the instant examples. The parasites were cultivated in trypticase-yeast extract-maltose (TYM) Diamond's medium (DM) and supplemented with 10% heat-inactivated fetal bovine serum (Atlanta Biologics, Norcross, Ga.) at 37° C. for 24-48 hours until adequate numbers of trichomonads were present to perform the required number of replications. Following culture, T. foetus organisms were washed and re-suspended in 1 mL of sterile phosphate buffered saline (PBS) and then inoculated into 15 mL conical tubes (BD Falcon, Franklin Lakes, N.J.) or tissue culture wells (Sarstedt, Inc., Newton, N.C.) containing DM.
Trophozoites (3.75×10^5 mL^−1) were washed in PBS (VWR, Radnor, Pa.) and inoculated into 10 mL of fresh DM. At time 0, each of the following treatment groups was added to culture tubes: Group 1) control: 0.5 mL DM; Group 2) 0.5 mL pluronic lecithin organogel (PLO; Pluronic F127); Group 3) 75 mg ponazuril (PO) (0.5 mL); Group 4) 50 mg oxibendazole (OX) (0.5 mL); Group 5) 37.5 mg PO (0.25 mL)+0.25 mL PLO; and Group 6) 25 mg OX (0.25 mL)+0.25 mL PLO.
PLO (Pluronic F127 Letco Medical, Decatur, Ala.) was combined with OX (Anthelcide EQ® Zoetis, Florham Park, N.J.) or PO (Marquis® Merial, Duluth, Ga.) paste formulations by shear force, syringe-to-syringe-blending using two luer-lock syringes and a rapid fill connector (Baxter, Inglewood, Calif.). Each treatment was applied to conical culture tubes in 5 replicates. Following growth at 37° C., samples were taken every 2 hours for a total of 12 hours, and the tubes were vortexed prior to removal of a 20 μL sample. From these samples, the surviving organisms were counted utilizing disposable Neubauer hemocytometers (C-Chip® NanoEnTek Inc., Pleasanton, Calif.). At 12 hours post-treatment, each formulation was recultured in fresh DM without antiprotozoal compound and evaluated microscopically daily for the presence of T. foetus organisms in culture. These assays were performed in order to evaluate if the effects exerted by the antiprotozoal compounds could be reversed.

[2] = test system: T. foetus trophozoites; test: Example 3: T. foetus trophozoites in tissue culture wells, 5 passages (120 hours), re-emergence of organisms; type: cell-based, Tritrichomonas foetus; details: for subsequent cultures: over a 5 day period
Method: as §1, §2
Trophozoites (5×10^4 mL^−1) were cultured as described above and added to all tissue culture wells along with 3 mL of DM for a total volume of 4 mL of DM with 50,000 organisms per well. At time 0, each of the following treatment groups were added to tissue culture wells as follows: Group 1) positive control 4 mL DM; Group 2) negative control 4 mL 70% ethanol (EtOH); Group 3) 150 mg oxfendazole solution (OXF) (1 mL)+2 mL Velvachol (VC)+1 mL PLO; Group 4) 150 mg OXF (1 mL)+3 mL VC; Group 5) 150 mg OXF (1 mL)+3 mL EtOH; Group 6) 150 mg OXF (1 mL)+2 mL EtOH+1 mL PLO; Group 7) 1 mL EtOH+2 mL VC+1 mL PLO; Group 8) 1 mL EtOH+3 mL VC; Group 9) 3 mL EtOH+1 mL PLO; Group 10) 4 mL EtOH; Group 11) 4 mL VC; Group 12) 150 mg oxfendazole dissolved in 4 mL 99% DMSO; and Group 13) 4 mL 99% DMSO.
The OXF (U.S. Pharmacopeial Convention Rockville, Md.) stock solution was made in EtOH (Humco Texarkana, TX) and stored at 150 mg mL^−1, with the exception of Formulation 13 which included OXF dissolved in 99% DMSO (VedCo, Saint Joseph, Mo.). The combinations of PLO (Pluronic F127 Letco Medical, Decatur, Ala.), VC (Valeant North America LLC, Bridgewater, N.J.), EtOH (Humco Texarkana, TX), and OXF stock solution were mixed as described above.
Each treatment was applied to tissue culture wells in duplicate. Following culture as described in Example 2, samples were collected every 8 hours for a total of 24 hours and counted as previously described. At 24 hours post-treatment and following counting of organisms, each formulation was removed from the tissue culture well and centrifuged at 4000 g for 10 minutes. The supernatant was removed and placed in a labeled vial for evaluation of drug concentration at a later time. The pellet was re-suspended in 4 mL of DM and placed once again in a tissue culture well before being re-incubated at 37° C. This process was repeated every 24 hours for 5 passages (120 hours) to allow for re-emergence of any organisms. Assays were continued to be microscopically examined during this period for the presence of T. foetus organisms in culture by counting of live organisms.

| SMILES | inhibition of parasite growth [1] | reduction in motile organisms [1] [%] | motile organisms after re-culture [1] | surviving organisms / form seen, 8 hours post-incubation [2] | surviving organisms / form seen, 16 hours post-incubation [2] | surviving organisms / form seen, 24 hours post-incubation [2] | surviving organisms / form seen, 48 hours post-incubation [2] | surviving organisms / form seen, 72 hours post-incubation [2] | surviving organisms / form seen, 96 hours post-incubation [2] | surviving organisms / form seen, 120 hours post-incubation [2] | death of trophozoites ([2]; listed as 99% DMSO) | subsequent cultures [2] | death of trophozoites [2] |
| --- | --- | --- | --- | --- | --- | --- | --- | --- | --- | --- | --- | --- | --- |
| Cc1cc(-n2c(=O)[nH]c(=O)n(C)c2=O)ccc1Oc1ccc(S(=O)(=O)C(F)(F)F)cc1 [PO, 1-Methyl-3-(3-methyl-4-(4-((trifluoromethyl)sulfonyl)phenoxy)phenyl)-1,3,5-triazinane-2,4,6-trione] | significantly inhibited parasite growth | 98 | reestablishment of motile organisms was observed | – | – | – | – | – | – | – | – | – | – |
| C[S+](C)[O-] [DMSO] | – | – | – | dead trophs | dead trophs | dead trophs | dead trophs | dead trophs | no cells | no cells | capable of inducing death of trophozoites | negative cultures | – |
| CCCOc1ccc2nc(NC(=O)OC)[nH]c2c1 [OX, methyl (5-propoxy-1H-benzimidazol-2-yl)carbamate] | significantly inhibited parasite growth | 98 | reestablishment of motile organisms was observed | – | – | – | – | – | – | – | – | – | – |
| CCO [EtOH, ethanol] | – | – | – | dead trophs | dead trophs | dead trophs | dead trophs | dead trophs | no cells | no cells | – | negative cultures | capable of inducing death of trophozoites |
